Assay results as given in ChEMBL document CHEMBL6153088, “Discovery of 1,4-Disubstituted Cyclohexene Analogues as Selective GPR119 Agonists for the Treatment of Type 2 Diabetes” (J Med Chem, 2025).

Tests used:
[1] = biological target: T1, Glucose-dependent insulinotropic receptor (Homo sapiens, UniProt Q8TDV5); assay: Agonist activity at human GPR119; type: functional
T1 sequence (Q8TDV5 whole entry): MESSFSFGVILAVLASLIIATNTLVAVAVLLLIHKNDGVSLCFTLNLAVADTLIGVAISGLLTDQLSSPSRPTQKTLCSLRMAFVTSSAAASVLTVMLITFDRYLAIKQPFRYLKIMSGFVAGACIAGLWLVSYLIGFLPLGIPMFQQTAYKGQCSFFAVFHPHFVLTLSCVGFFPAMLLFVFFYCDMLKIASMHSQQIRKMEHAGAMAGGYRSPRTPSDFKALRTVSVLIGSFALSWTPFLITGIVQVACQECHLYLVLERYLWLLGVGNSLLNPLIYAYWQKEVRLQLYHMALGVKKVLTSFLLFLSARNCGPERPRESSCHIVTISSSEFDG

[2] = tested on: Mus musculus; assay: (§1) Anti-diabetic activity in overnight fasted male C57BL/6J mouse assessed as reduction in blood glucose level by measuring reduction in AUC […] at 20 mg/kg pre-administered with compound for 30 min followed by glucose bolus addition and measured upto 120 min by oral glucose tolerance test relative to control; type: functional; parameters: scale not given: the % may be the effect or the level left; settings: time <= 150 min, 2.5 h
[3] = biological target: T1, Glucose-dependent insulinotropic receptor; assay: Agonist activity at human GPR119 expressed in CHO cells assessed as cAMP level measured after 90 mins by HTRF based assay; type: functional, cell-based
[4] = tested on: Mus musculus; assay: as §1, with “at 30” for “at 20”; type: functional; parameters: scale not given: the % may be the effect or the level left; settings: time <= 150 min, 2.5 h
[5] = tested on: Mus musculus; assay: Anti-diabetic activity in overnight fasted male C57BL/6J mouse assessed as reduction in blood glucose level administered twice a day preincubated with compound for 30 min followed by glucose bolus addition and measured upto 120 min by oral glucose tolerance test; type: functional, organism-based; settings: dose 3-30 mg/kg, time <= 150.0 min
[6] = tested on: Mus musculus; assay: Anti-diabetic activity in male FATZO mouse assessed as reduction in blood glucose level by measuring AUC […] at 300 mg/kg once a day pre-administered with compound for 30 min followed by glucose bolus addition and measured upto 120 min by oral glucose tolerance test relative to control; type: functional; parameters: scale not given: the % may be the effect or the level left; settings: time <= 150 min, 2.5 h

SMILES	Activity [2]	EC50 [3]	other results
CCOC(=O)c1ccc(-c2ccc(OCC3CCN(C(=O)OC(C)(C)C)CC3)cc2)cc1	–	–	EC50 [1]: 120 nM
CCc1cnc(N2CCC(COc3ccc(C4=CCC(C(=O)N5CC[C@@H](O)C5)CC4)cc3)CC2)nc1 (stereo partly specified)	13.5%	13 nM	–
CC(C)(C)OC(=O)N1CCC(COc2ccc(C3=CCC(C(=O)NC4CC4)CC3)cc2)CC1 (stereo unspecified)	–	40 nM	–
CC(C)(C)OC(=O)N1CCC(COc2ccc(C3=CCC(C(=O)NCC(F)F)CC3)cc2)CC1 (stereo unspecified)	10.6%	34 nM	–
CN(CCO)C(=O)C1CC=C(c2ccc(OCC3CCN(C(=O)OC(C)(C)C)CC3)cc2)CC1 (stereo unspecified)	6.8%	14 nM	–
CCc1cnc(N2CCC(COc3ccc(C4=CCC(C(=O)N5CCC[C@H]5CO)CC4)cc3)CC2)nc1 (stereo partly specified)	9.8%	31 nM	–
CCc1cnc(N2CCC(COc3ccc(C4=CCC(C(=O)N5CCC[C@@H]5CO)CC4)cc3)CC2)nc1 (stereo partly specified)	16.6%	6.8 nM	Activity [4]: 25.8%; Activity [5]: Dose-dependent-effect
CCc1cnc(N2CCC(COc3ccc(C4=CCC(C(=O)N5CCC(F)(F)C5)CC4)cc3)CC2)nc1 (stereo unspecified)	12.6%	10 nM	–
CCOC(=O)C1CCC(c2ccc(OCC3CCN(C(=O)OC(C)(C)C)CC3)cc2)CC1 (stereo unspecified)	–	–	EC50 [1]: 370 nM
CCc1cnc(N2CCC(COc3ccc(C4=CCC(C(=O)N5CCC5)CC4)cc3)CC2)nc1 (stereo unspecified)	14.6%	38 nM	–
CN(C)C(=N)NC(=N)N [METFORMIN]	–	–	Activity [6]: 25%
CC(C)(C)OC(=O)N1CCC(COc2ccc(C3=CCC(C(=O)NCCO)CC3)cc2)CC1 (stereo unspecified)	6.7%	140 nM	–
CCc1cnc(N2CCC(COc3ccc(C4=CCC(C(=O)N5CCCC5)CC4)cc3)CC2)nc1 (stereo unspecified)	15.9%	27 nM	–
CCc1cnc(N2CCC(COc3ccc(C4=CCC(C(=O)N5CC[C@H](CO)C5)CC4)cc3)CC2)nc1 (stereo partly specified)	13%	36 nM	–
